Measured values as given in PMC7162861, “Synthesis, cytotoxicity, pharmacokinetic profile, binding with DNA and BSA of new imidazo[1,2-a]pyrazine-benzo[d]imidazol-5-yl hybrids” (Scientific Reports, 2020).

Tests used:
OVCAR-5 = experiment: NCI cytotoxicity screen, Ovarian Cancer panel; assay type: cell-based; settings: Homo sapiens, single dose 10 µM, negative = lethal, read-out: Percent growth inhibition
Procedure: (§1) Cytotoxicity was performed at National Cancer Institute (NCI), Bethesda, USA as per their protocols.

OVCAR-4 = experiment: NCI cytotoxicity screen, Ovarian Cancer panel; assay type: cell-based; settings: Homo sapiens; OVCAR-4; single dose 10 µM; negative = lethal; read-out: Percent growth inhibition
Procedure: as §1

SK-OV-3 = experiment: NCI cytotoxicity screen, Ovarian Cancer panel; assay type: cell-based; settings: Homo sapiens, single dose 10 µM, negative = lethal, read-out: Percent growth inhibition
Procedure: as §1

OVCAR-8 = experiment: NCI cytotoxicity screen, Ovarian Cancer panel; assay type: cell-based; settings: Homo sapiens, single dose 10 µM, negative = lethal, read-out: Percent growth inhibition
Procedure: as §1

NCI/ADR-RES = experiment: NCI cytotoxicity screen, Ovarian Cancer panel; assay type: cell-based; settings: Homo sapiens, single dose 10 µM, negative = lethal, read-out: Percent growth inhibition
Procedure: as §1

IGROV1 = experiment: NCI cytotoxicity screen, Ovarian Cancer panel; assay type: cell-based; settings: Homo sapiens, IGROV-1, single dose 10 µM, negative = lethal, read-out: Percent growth inhibition
Procedure: as §1

ACHN = experiment: NCI cytotoxicity screen, Renal Cancer panel; assay type: cell-based; settings: Homo sapiens, single dose 10 µM, negative = lethal, read-out: Percent growth inhibition
Procedure: as §1

SN12C = experiment: NCI cytotoxicity screen, Renal Cancer panel; assay type: cell-based; settings: Homo sapiens, single dose 10 µM, negative = lethal, read-out: Percent growth inhibition
Procedure: as §1

CAKI-1 = experiment: NCI cytotoxicity screen, Renal Cancer panel; assay type: cell-based; settings: Homo sapiens; CAKI-1; single dose 10 µM; negative = lethal; read-out: Percent growth inhibition
Procedure: as §1

RXF 393 = experiment: NCI cytotoxicity screen, Renal Cancer panel; assay type: cell-based; settings: Homo sapiens, single dose 10 µM, negative = lethal, read-out: Percent growth inhibition
Procedure: as §1

UO-31 = experiment: NCI cytotoxicity screen, Renal Cancer panel; assay type: cell-based; settings: Homo sapiens, single dose 10 µM, negative = lethal, read-out: Percent growth inhibition
Procedure: as §1

[1] = Experimental log P, shake-flask method; assay type: physicochemical; settings: n-octanol/phosphate buffer pH 7.4, read-out: Exp. Log P
Procedure: Partition coefficients or experimental log P values of all synthesized compounds (9–23, 30 and 31) were calculated using the shake-flask method. Log P values were determined using n-octanol and phosphate buffer (pH = 7.4) at 10:1 ratio of volumes. Stock solutions (10^−3 M) of compounds were prepared in DMSO. Glass vials were used to make final solutions i.e. stock solution (250 µL) and phosphate buffer (125 µL). To record the absorbance, wavelength was selected based on λmax of the respective compound. Initial absorbance (Ai) for every compound was noted consuming the stock solution in the buffer phase. Now added n-octanol to every vial and shaken well using a mechanical shaker for 50 minutes. To get separation of both phases, glass vials were centrifuged for 35 min. at 2500 rpm. Then, the layer of octanol was separated from glass vial. The final absorbance (Af) of each compound was recorded by using the buffer layer. The values of P for compounds were determined by the following equation (Eq. 8):8 P=Ai−Af/Af×Vw/Vo

OVCAR-3 = experiment: NCI cytotoxicity screen, Ovarian Cancer panel; assay type: cell-based, human; settings: Homo sapiens; OVCAR-3; single dose 10 µM; negative = lethal; read-out: Percent growth inhibition
Procedure: as §1

DU-145 = experiment: NCI cytotoxicity screen, Prostate Cancer panel; assay type: cell-based, human; settings: Homo sapiens, single dose 10 µM, negative = lethal, read-out: Percent growth inhibition
Procedure: as §1

PC-3 = experiment: NCI cytotoxicity screen, Prostate Cancer panel; assay type: cell-based, human; settings: Homo sapiens, single dose 10 µM, negative = lethal, read-out: Percent growth inhibition
Procedure: as §1

HT29 = experiment: NCI cytotoxicity screen, Colon Cancer panel; assay type: cell-based; settings: Homo sapiens, HT-29; HT29; single dose 10 µM; negative = lethal; read-out: Percent growth inhibition
Procedure: as §1

HCT-15 = experiment: NCI cytotoxicity screen, Colon Cancer panel; assay type: cell-based; settings: Homo sapiens, single dose 10 µM, negative = lethal, read-out: Percent growth inhibition
Procedure: as §1

HCT-116 = experiment: NCI cytotoxicity screen, Colon Cancer panel; assay type: cell-based; settings: Homo sapiens, single dose 10 µM, negative = lethal, read-out: Percent growth inhibition
Procedure: as §1

COLO 205 = experiment: NCI cytotoxicity screen, Colon Cancer panel; assay type: cell-based; settings: Homo sapiens, single dose 10 µM, negative = lethal, read-out: Percent growth inhibition
Procedure: as §1

SR = experiment: NCI cytotoxicity screen, Leukemia panel; assay type: cell-based; settings: Homo sapiens, single dose 10 µM, negative = lethal, read-out: Percent growth inhibition
Procedure: as §1

HL-60(TB) = experiment: NCI cytotoxicity screen, Leukemia panel; assay type: cell-based; settings: Homo sapiens, HL-60, HL-60(TB); single dose 10 µM; negative = lethal; read-out: Percent growth inhibition
Procedure: as §1

CCRF-CEM = experiment: NCI cytotoxicity screen, Leukemia panel; assay type: cell-based; settings: Homo sapiens, single dose 10 µM, negative = lethal, read-out: Percent growth inhibition
Procedure: as §1

MOLT-4 = experiment: NCI cytotoxicity screen, Leukemia panel; assay type: cell-based; settings: Homo sapiens, MOLT-4, MOLT-4; single dose 10 µM; negative = lethal; read-out: Percent growth inhibition
Procedure: as §1

RPMI-8226 = experiment: NCI cytotoxicity screen, Leukemia panel; assay type: cell-based; settings: Homo sapiens; RPMI-8226; single dose 10 µM; negative = lethal; read-out: Percent growth inhibition
Procedure: as §1

K-562 = experiment: NCI cytotoxicity screen, Leukemia panel; assay type: cell-based; settings: Homo sapiens, K562; K-562; single dose 10 µM; negative = lethal; read-out: Percent growth inhibition
Procedure: as §1

MDA-MB-468 = experiment: NCI cytotoxicity screen, Breast Cancer panel; assay type: cell-based; settings: Homo sapiens, single dose 10 µM, negative = lethal, read-out: Percent growth inhibition
Procedure: as §1

MDA-MB-231/ATCC = experiment: NCI cytotoxicity screen, Breast Cancer panel; assay type: cell-based; settings: Homo sapiens, MDA-MB-231, read-out: Percent growth inhibition
Procedure: as §1

MCF7 = experiment: NCI cytotoxicity screen, Breast Cancer panel; assay type: cell-based; settings: Homo sapiens, single dose 10 µM, negative = lethal, read-out: Percent growth inhibition
Procedure: as §1

HS 578 T = experiment: NCI cytotoxicity screen, Breast Cancer panel; assay type: cell-based; settings: Homo sapiens; HS 578T; single dose 10 µM; negative = lethal; read-out: Percent growth inhibition
Procedure: as §1

T-47D = experiment: NCI cytotoxicity screen, Breast Cancer panel; assay type: cell-based; settings: Homo sapiens, T47D, T-47D; single dose 10 µM; negative = lethal; read-out: Percent growth inhibition
Procedure: as §1

BT-549 = experiment: NCI cytotoxicity screen, Breast Cancer panel; assay type: cell-based; settings: Homo sapiens, single dose 10 µM, negative = lethal, read-out: Percent growth inhibition
Procedure: as §1

HCC-2998 = experiment: NCI cytotoxicity screen, Colon Cancer panel; assay type: cell-based, human; settings: Homo sapiens; HCC-2998; single dose 10 µM; negative = lethal; read-out: Percent growth inhibition
Procedure: as §1

A549/ATCC = experiment: NCI cytotoxicity screen, Non-Small Cell Lung Cancer panel; assay type: cell-based; settings: Homo sapiens; A549/ATCC; single dose 10 µM; negative = lethal; read-out: Percent growth inhibition
Procedure: as §1

NCI-H460 = experiment: as above; assay type: cell-based; settings: Homo sapiens, single dose 10 µM, negative = lethal, read-out: Percent growth inhibition
Procedure: as §1

HOP-62 = experiment: as above; assay type: cell-based; settings: Homo sapiens, single dose 10 µM, negative = lethal, read-out: Percent growth inhibition
Procedure: as §1

HOP-92 = experiment: as above; assay type: cell-based; settings: Homo sapiens, single dose 10 µM, negative = lethal, read-out: Percent growth inhibition
Procedure: as §1

EXVX = experiment: as above; assay type: cell-based; settings: Homo sapiens; EXVX; single dose 10 µM; negative = lethal; read-out: Percent growth inhibition
Procedure: as §1

NCI-H23 = experiment: as above; assay type: cell-based, human; settings: Homo sapiens, single dose 10 µM, negative = lethal, read-out: Percent growth inhibition
Procedure: as §1

NCI-H322M = experiment: as above; assay type: cell-based, human; settings: Homo sapiens, single dose 10 µM, negative = lethal, read-out: Percent growth inhibition
Procedure: as §1

NCI-H226 = experiment: as above; assay type: cell-based, human; settings: Homo sapiens, single dose 10 µM, negative = lethal, read-out: Percent growth inhibition
Procedure: as §1

NCI-522 = experiment: as above; assay type: cell-based, human; settings: Homo sapiens; NCI-522; single dose 10 µM; negative = lethal; read-out: Percent growth inhibition
Procedure: as §1

Q: With `c1csc(-c2cn3ccnc3c(-c3ccc4c(c3)ncn4C3CCCCC3)n2)c1` [Compound 22, 8-(1-cyclohexyl-1H-benzo[d]imidazol-5-yl)-6-(thiophen-2-yl)imidazo[1,2-a]pyrazine] as the molecule, how does the inhibition at 10 µM (OVCAR-5) read?
A: < 1%

Q: And the inhibition at 10 µM (OVCAR-4)?
A: < 1%

Q: What about the inhibition at 10 µM (SK-OV-3) of the same molecule?
A: < 1%

Q: What about the inhibition at 10 µM (OVCAR-8) of the same molecule?
A: < 1%

Q: What about the inhibition at 10 µM (NCI/ADR-RES) of the same molecule?
A: 6.79%

Q: What about the inhibition at 10 µM (IGROV1) of the same molecule?
A: < 1%

Q: What about the inhibition at 10 µM (ACHN) of the same molecule?
A: < 1%

Q: And the inhibition at 10 µM (SN12C)?
A: < 1%

Q: What about the inhibition at 10 µM (CAKI-1) of the same molecule?
A: < 1%

Q: And the inhibition at 10 µM (RXF 393)?
A: < 1%

Q: And the inhibition at 10 µM (UO-31)?
A: 16.4%

Q: And the logP [1]?
A: 1.37

Q: And the inhibition at 10 µM (OVCAR-3)?
A: 0.91%

Q: What about the inhibition at 10 µM (DU-145) of the same molecule?
A: 3.63%

Q: And the inhibition at 10 µM (PC-3)?
A: 7.16%

Q: What about the inhibition at 10 µM (HT29) of the same molecule?
A: < 1%

Q: And the inhibition at 10 µM (HCT-15)?
A: 6.48%

Q: And the inhibition at 10 µM (HCT-116)?
A: < 1%

Q: And the inhibition at 10 µM (COLO 205)?
A: < 1%

Q: What about the melting point of the same molecule?
A: 187 to 190 °C

Q: What about the inhibition at 10 µM (SR) of the same molecule?
A: 15%

Q: And the inhibition at 10 µM (HL-60(TB))?
A: 0.87%

Q: And the inhibition at 10 µM (CCRF-CEM)?
A: < 1%

Q: What about the inhibition at 10 µM (MOLT-4) of the same molecule?
A: 12.4%

Q: And the inhibition at 10 µM (RPMI-8226)?
A: < 1%

Q: And the inhibition at 10 µM (K-562)?
A: < 1%

Q: What about the inhibition at 10 µM (MDA-MB-468) of the same molecule?
A: 28.3%

Q: What about the inhibition at 10 µM (MDA-MB-231/ATCC) of the same molecule?
A: 7.47%

Q: And the inhibition at 10 µM (MCF7)?
A: 34%

Q: What about the inhibition at 10 µM (HS 578 T) of the same molecule?
A: < 1%

Q: And the inhibition at 10 µM (T-47D)?
A: 37.3%

Q: What about the inhibition at 10 µM (BT-549) of the same molecule?
A: < 1%

Q: And the inhibition at 10 µM (HCC-2998)?
A: < 1%

Q: And the inhibition at 10 µM (A549/ATCC)?
A: 1.63%

Q: And the inhibition at 10 µM (NCI-H460)?
A: < 1%

Q: What about the inhibition at 10 µM (HOP-62) of the same molecule?
A: 0.44%

Q: And the inhibition at 10 µM (HOP-92)?
A: < 1%

Q: What about the inhibition at 10 µM (EXVX) of the same molecule?
A: 3.54%

Q: What about the inhibition at 10 µM (NCI-H23) of the same molecule?
A: 5.56%

Q: And the inhibition at 10 µM (NCI-H322M)?
A: 0.45%

Q: And the inhibition at 10 µM (NCI-H226)?
A: < 1%

Q: What about the inhibition at 10 µM (NCI-522) of the same molecule?
A: 14.6%
